From US20030022821A1, “Bioactive peptides” (priority 1998, published 2003)
Where two headings read alike, the source gives them in different places. Ends that are not written are not given here.

How the values were obtained:
[1] = tested on: Meth A cells (murine sarcoma cell line); experiment: Cytotoxicity on Meth A cells, MTT method
How it was run: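 Meth A cells in RPMI with 10% FBS exposed to peptides (final e.g. […]) for 4 h, then MTT added for 2 h; formazan dissolved in acid isopropanol and absorbance read at 590 nm. Medium alone and 1% Triton X-100 defined 0% and 100% killing.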

Meth A tumors = experiment: Tumor regression, murine Meth A fibrosarcoma; type: in vivo, mice; conditions: for regression of Meth A tumors: injected intratumorally, treatment on day 7 and 10
Protocol: Specific pathogen-free CB6F1 (Balb/c×C57 BL/6) female mice of about 8 weeks of age were obtained from Charles River (Germany). The mice were kept on standard laboratory chow and water. Tumor bearing mice were serologically screened for viral (LDH, CMV) and mycoplasmic infection and in all cases tested negative.
After a single inoculation of 5×10^7 viable Meth A cells, different LF peptides were injected intratumorally (LFB-14-31, LFB 17-31 Pmc, 500 μg in a 50 μl dose; LFB 17-31, 1000 μg in a 50 μl dose), on day 7 and day 10. LFB 14-31 was also injected intraperitoneally (PBI), 500 μg/ml. Saline only was injected in the control mice (50 μl) (K1,K2,K3). The tumor diameter (mean of transversal and longitudinal) were measured with an electronic calipper.

[2] = tested on: Escherichia coli ATCC 25922; type: cell-based
How it was run: (§1)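 Standard broth microdilution MIC in 1% Bacto Peptone water, inoculum 2×10^6 CFU/ml of mid-log-phase bacteria grown in 2% peptone water. Run in triplicate; peptide concentration in wells verified by HPLC.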

[3] = tested on: Staphylococcus aureus ATCC 25923; type: cell-based
How it was run: as §1

[4] = tested on: human promyelotic leukemia cell line HL 60; experiment: Cytotoxicity on HL 60 cells, MTT; type: cell-based
human red blood cells = experiment: Hemolytic assay; type: cell-based
[5] = tested on: MRSA (methicillin resistant S. aureus); type: cell-based
Protocol: The bacterial strains used were: Escherichia coli ATCC 25922 and Staphylococcus aureus ATCC 25923. All strains were stored at −70° C. The bacteria were grown in 2% Bacto Peptone water (Difco 1807-17-4). All tests were performed with bacteria in mid-logarithmic growth phase. Determination of the minimum inhibitory concentration (MIC) of the peptides for bacterial strains were performed in 1% Bacto Peptone water. A standard microdilution technique with an inoculum of 2×10^6 CFU/ml was used. All assays were performed in triplets. Since the peptides are positively charged and therefore could adhere to the plastic wells, we controlled the actual concentration of the peptides in the solution by HPLC. There was no difference between the concentration of the peptides before or after adding the solution to the plastic wells.
Table 13 below gives the antibacterial activity and toxicity data for some preferred peptides of the invention. MRSA is methicillin resistant S. aureus and MRSE is methicillin resistant S. epidermidis.

[6] = type: physicochemical
From the text: Peptide W3714, with three additional tryptophan residues (a total of five tryptophan residues in the peptide), has decreased activity. […] This has been physically observed during MIC testing procedures when the peptide tended to precipitate at high concentrations.

[7] = at the concentration tested, 4 hours

Row | Compound | regression of Meth A tumors (Meth A tumors) | MIC E. coli ([2]; ATCC 25922) | MIC E. coli ATCC 25922 ([2]; Table 1, value in brackets) [µM] | MIC S. aureus ([3]; ATCC 25923) | MIC S. aureus ATCC 25923 ([3]; Table 1, value in brackets) [µM] | MIC E. coli ([2]; Table 6) [µg/mL] | MIC S. aureus ([3]; Table 6, unit assumed) [µg/mL] | cytotoxic effect on human HL 60 cells [4, 7] | MIC MRSA ([5]; methicillin resistant) [µM] | EC50 (human red blood cells) [µM] | % Hemolysis 10 μg/ml (human red blood cells; red cells of human) [%] | % Hemolysis 100 μg/ml (human red blood cells; red cells of human) [%] | further results
1 | CSCC[C@H](NC(=O)[C@H](CCCNC(=N)N)NC(=O)[C@H](Cc1c[nH]c2ccccc12)NC(=O)[C@H](CCC(N)=O)NC(=O)[C@H](Cc1c[nH]c2ccccc12)NC(=O)[C@H](CCCNC(=N)N)NC(=O)[C@H](CCCNC(=N)N)NC(=O)[C@H](CSCNC(C)=O)NC(=O)[C@H](CCCCN)NC(=O)[C@H](Cc1ccccc1)NC(=O)[C@H](Cc1c[nH]c2ccccc12)NC(=O)[C@H](CCC(=O)O)NC(=O)[C@@H]1CCCN1)C(=O)N[C@@H](CCCCN)C(=O)N[C@@H](CCCCN)C(=O)N[C@@H](CC(C)C)C(=O)NCC(=O)N[C@@H](C)C(=O)O [LFB 14-31] | induced regression of the Meth A tumors | 70 µg/mL | 28 | >250 µg/mL | 80 |  |  |  |  |  |  |  | MethA IC50 ([1]; Table 7, peptide required to kill 50% of MethA cells): no activity; eradication of Meth A tumors (Meth A tumors; treated intraperitoneally): tumors were also eradicated; MIC E. coli ATCC 25922 ([2]; ATCC 25922): 70 µg/mL; MIC S. aureus ATCC 25923 ([3]; ATCC 25923): 200 µg/mL; cytotoxic effect on human HL 60 cells [4]: no cytotoxic effect; EC50 (human red blood cells; red cells of human): > 404 µM
2 | CSCC[C@H](NC(=O)[C@H](CCCNC(=N)N)NC(=O)[C@H](Cc1c[nH]c2ccccc12)NC(=O)[C@H](CCC(N)=O)NC(=O)[C@H](Cc1c[nH]c2ccccc12)NC(=O)[C@H](CCCNC(=N)N)NC(=O)[C@H](CCCNC(=N)N)NC(=O)[C@H](CSCNC(C)=O)NC(=O)[C@H](CCCCN)NC(=O)[C@@H](N)Cc1ccccc1)C(=O)N[C@@H](CCCCN)C(=O)N[C@@H](CCCCN)C(=O)N[C@@H](CC(C)C)C(=O)NCC(=O)N[C@@H](C)C(=O)O [LFB 17-31, H2N-Phe-Lys-Cys-Arg-Arg-Trp-Gln-Trp-Arg-Met-Lys-Lys-Leu-Gly-Ala-COOH] | induced regression of the Meth A tumors |  | 20 |  | 50 | 50 | 100 | no cytotoxic effect |  |  |  |  | cytotoxic effect on Meth A cells ([1]; 1 mg/ml, 4 hours incubation): weak effect; cytotoxic effect on Meth A cells ([1]; concentrations up to 1 mg/ml, ½ hour incubation): no significant cytotoxic effect; MIC E. coli ([2]; Table 3): 50 µg/mL; MIC E. coli ([2]; Table 4): 50 µg/mL; MIC S. aureus ([3]; Table 3, unit assumed): 100 µg/mL; MIC S. aureus ([3]; Table 4, unit assumed): 100 µg/mL
3 | CC[C@H](C)[C@H](NC(=O)[C@H](CO)NC(=O)[C@@H]1CCCN1C(=O)[C@H](C)NC(=O)CNC(=O)[C@H](CC(C)C)NC(=O)[C@H](CCCCN)NC(=O)[C@H](CCCCN)NC(=O)[C@H](CCSC)NC(=O)[C@H](CCCNC(=N)N)NC(=O)[C@H](Cc1c[nH]c2ccccc12)NC(=O)[C@H](CCC(N)=O)NC(=O)[C@H](Cc1c[nH]c2ccccc12)NC(=O)[C@H](CCCNC(=N)N)NC(=O)[C@H](CCCNC(=N)N)NC(=O)[C@H](CSCNC(C)=O)NC(=O)[C@H](CCCCN)NC(=O)[C@@H](N)Cc1ccccc1)C(=O)N[C@H](C(=O)N[C@@H](CSCNC(C)=O)C(=O)N[C@H](C(=O)N[C@@H](CCCNC(=N)N)C(=O)N[C@@H](CCCNC(=N)N)C(=O)N[C@@H](C)C(=O)N[C@@H](Cc1ccccc1)C(=O)O)C(C)C)[C@@H](C)O [LFB (17-41), reference compound] |  |  |  |  |  |  |  | weak concentration dependant cytotoxic effect |  |  |  |  | MIC E. coli ATCC 25922 ([2]; Table 1): 30 µg/mL; MIC S. aureus ATCC 25923 ([3]; Table 1): 30 µg/mL
4 | CSCC[C@H](NC(=O)[C@H](CCCNC(=N)N)NC(=O)[C@H](Cc1ccc2ccccc2c1)NC(=O)[C@H](CCC(N)=O)NC(=O)[C@H](Cc1ccc2ccccc2c1)NC(=O)[C@H](CCCNC(=N)N)NC(=O)[C@H](CCCNC(=N)N)NC(=O)[C@H](CSCNC(C)=O)NC(=O)[C@H](CCCCN)NC(=O)[C@@H](N)Cc1ccccc1)C(=O)N[C@@H](CCCCN)C(=O)N[C@@H](CCCCN)C(=O)N[C@@H](CC(C)C)C(=O)NCC(=O)N[C@@H](C)C(=O)O [LFB Nal6, 8] |  | 4.8 µM |  | 9.6 µM |  |  |  |  | 2.4 | > 479 | 2.8 | 4.9 | MIC E. coli ([2]; Table 8): 10 µg/mL; MIC E. coli ([2]; Table 13, 8): 10.0 µg/mL; MIC S. aureus ([3]; Table 8): 20 µg/mL; MIC S. aureus ([3]; Table 13, 8): 20.0 µg/mL; MIC MRSA ([5]; Table 13, 8): 5.0 µg/mL; EC 50 (human red blood cells): >1000 µg/mL
5 | H-FKWRRWWWRMKKLWA-OH [LFB W3, 7, 14, H2N-Phe-Lys-Trp-Arg-Arg-Trp-Trp-Trp-Arg-Met-Lys-Lys-Leu-Trp-Ala-COOH] |  | 20 µg/mL |  | 20 µg/mL |  | 20 | 20 |  |  |  | 4.02 | 66.1 | solubility in aqueous solutions [6]: less soluble in aquous solutions
6 | YRWWRWARRW-NH2 [LFM 17-26 A7R2,8, 9W3,4, 10Y1NH2] |  | 6.2 µM |  |  |  |  |  |  | 1.5 | 543 ± 56 |  |  | MIC E. coli ([2]; Table 10): 10 µg/mL; MIC E. coli ([2]; Table 13): 10.0 µg/mL; MIC S. aureus ([3]; Table 13): 1.0 µg/mL; MIC MRSA ([5]; Table 13): 2.5 µg/mL; EC 50 (human red blood cells; Table 13, toxicity (hemolysis)): 880 ± 90 µg/mL
